Source: ChEMBL document CHEMBL1143946, “Docking analyses on human muscarinic receptors: unveiling the subtypes peculiarities in agonists binding” (Bioorg Med Chem, 2008)

Legend:
Assay in all cases: biochemical
[1] = molecular target: T1, Muscarinic acetylcholine receptor M2 (Homo sapiens, UniProt P08172)
T1 sequence (P08172 whole entry): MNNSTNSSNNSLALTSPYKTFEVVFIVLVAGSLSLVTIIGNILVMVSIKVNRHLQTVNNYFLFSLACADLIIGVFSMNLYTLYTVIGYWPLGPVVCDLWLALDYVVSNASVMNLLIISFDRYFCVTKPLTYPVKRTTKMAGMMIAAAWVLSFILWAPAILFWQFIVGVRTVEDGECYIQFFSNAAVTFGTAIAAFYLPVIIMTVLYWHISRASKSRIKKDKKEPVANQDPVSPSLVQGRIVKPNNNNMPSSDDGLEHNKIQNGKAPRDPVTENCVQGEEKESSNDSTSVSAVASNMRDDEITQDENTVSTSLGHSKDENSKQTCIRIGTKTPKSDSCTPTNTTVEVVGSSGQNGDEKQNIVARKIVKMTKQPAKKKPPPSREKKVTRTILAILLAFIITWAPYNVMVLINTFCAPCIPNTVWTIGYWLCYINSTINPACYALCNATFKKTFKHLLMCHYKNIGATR

[2] = molecular target: T2, Muscarinic acetylcholine receptor M5 (Homo sapiens, UniProt P08912)
T2 sequence (P08912 whole entry): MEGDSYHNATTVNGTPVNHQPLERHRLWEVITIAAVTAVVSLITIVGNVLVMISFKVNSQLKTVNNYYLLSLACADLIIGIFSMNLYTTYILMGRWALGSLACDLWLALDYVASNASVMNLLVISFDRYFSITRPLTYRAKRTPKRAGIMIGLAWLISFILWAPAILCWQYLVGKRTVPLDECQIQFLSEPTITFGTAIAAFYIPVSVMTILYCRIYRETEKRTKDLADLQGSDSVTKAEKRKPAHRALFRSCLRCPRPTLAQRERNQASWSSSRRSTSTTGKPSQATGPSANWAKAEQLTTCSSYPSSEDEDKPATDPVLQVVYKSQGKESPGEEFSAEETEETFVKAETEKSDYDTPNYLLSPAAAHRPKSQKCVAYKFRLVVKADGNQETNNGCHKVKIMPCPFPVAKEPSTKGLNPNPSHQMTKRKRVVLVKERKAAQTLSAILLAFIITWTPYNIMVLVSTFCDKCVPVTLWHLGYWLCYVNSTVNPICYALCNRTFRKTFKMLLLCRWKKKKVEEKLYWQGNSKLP
Description: Binding affinity to human cloned muscarinic M5 receptor expressed in CHO cells

[3] = molecular target: T3, Muscarinic acetylcholine receptor M1 (Homo sapiens, UniProt P11229)
T3 sequence (P11229 whole entry): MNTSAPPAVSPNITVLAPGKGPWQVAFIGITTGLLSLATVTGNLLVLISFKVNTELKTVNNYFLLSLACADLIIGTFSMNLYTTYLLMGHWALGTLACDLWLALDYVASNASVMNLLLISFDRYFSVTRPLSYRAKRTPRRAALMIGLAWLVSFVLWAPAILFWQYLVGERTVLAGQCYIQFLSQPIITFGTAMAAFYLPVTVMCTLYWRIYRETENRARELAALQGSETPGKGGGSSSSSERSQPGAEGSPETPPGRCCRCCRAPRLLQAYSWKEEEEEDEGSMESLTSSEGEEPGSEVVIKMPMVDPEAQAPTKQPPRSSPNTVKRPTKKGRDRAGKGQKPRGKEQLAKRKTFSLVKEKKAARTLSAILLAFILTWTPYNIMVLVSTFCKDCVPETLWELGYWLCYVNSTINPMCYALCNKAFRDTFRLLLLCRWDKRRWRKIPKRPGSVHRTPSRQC

Row | SMILES | Ki [1] [µM] | Ki [2] [µM] | Ki [3] [µM]
1 | C[C@H]1OC[C@@H](C[N+](C)(C)C)O1 | 1.2 | 21.9 | 11
2 | Cc1nccn1CC#CCOc1ccon1 | 0.00363 | 0.00617 | 0.0912
3 | C[C@@H]1O[C@H]([C@H]2CCC[N+]2(C)C)CS1 | 5.25 | 24.5 | 19.1
4 | C[C@@H]1O[C@H]([C@@H]2CCC[N+]2(C)C)CS1 | 3.55 | 23.4 | 14.1
5 | C[C@H]1O[C@@H]([C@H]2CCC[N+]2(C)C)CS1 | 1.41 | 10.7 | 5.89
6 | C[C@H]1OC[C@@H]([C@H]2CCC[N+]2(C)C)O1 | 5.01 | 52.5 | 52.5
7 | C[C@H]1O[C@@H]([C@@H]2CCC[N+]2(C)C)CS1 | 0.676 | 10.2 | 8.32
8 | C[C@H]1COC[C@@H](C[N+](C)(C)C)O1 | 37.2 | 3.72 | 
9 | CC(=O)OC1CC2CCCC1N2C (configuration not stated) | 2.75 |  | 282
10 | C[C@@H]1O[C@H](C[N+](C)(C)C)CS1 | 2.09 | 13.2 | 11
11 | C[C@H]1OC[C@@H]([C@@H]2CCC[N+]2(C)C)O1 | 1.7 | 22.9 | 21.4
12 | C[C@H]1O[C@@H]([C@@H]2CCC[N+]2(C)C)C[S+]1[O-] (some centres not stated) | 77.6 |  | 
13 | CC(=O)OC1CC2CCCC1N2 (configuration not stated) | 0.00263 |  | 21.4
14 | Cc1nccn1CC#CCN1CCCC1=O | 0.102 | 0.0513 | 0.12
15 | C[C@@H]1O[C@H]([C@@H]2CCC[N+]2(C)C)C[S+]1[O-] (stereo in doubt; 9) | 9.33 |  | 
16 | C[C@@H]1O[C@H]([C@@H]2CCC[N+]2(C)C)C[S+]1[O-] (stereo in doubt; 11) | 15.5 | 33.9 | 93.3
17 | C[C@@H]1O[C@H]([C@@H]2CCC[N+]2(C)C)C[S+]1[O-] (stereo in doubt; 12) | 81.3 | 57.5 | 
18 | CO/N=C/C1=CCCN(C)C1 [MILAMELINE] | 1 | 3.16 | 5.62
19 | C[N+](C)(C)CC#CCN1CCCC1=O [OXOTREMORINE METHIODIDE] | 0.107 |  | 20.4
20 | O=C1CCCN1CC#CCN1CCCC1 [OXOTREMORINE] | 0.324 |  | 0.00112
21 | CO/N=C(\C#N)[C@H]1CN2CCC1CC2 [SABCOMELINE] | 0.204 |  | 0.229
